Assay results from patent US9452986B2, “6-heteroaryloxy- or 6-aryloxy-quinoline-2-carboxamides and method of use” (AbbVie Inc., priority 2014, dated 2016).
Read-outs that look alike come from different tables or passages of the source.

Biological target: recombinant human Nav1.7 (Homo sapiens (Human), UniProt Q15858)
Assay: FRET-based membrane potential assay, recombinant human sodium channel Nav1.7
Type: cell-based
Method in brief: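 Channel activation used veratridine at its EC80, set by a dilution curve each experiment, together with Leiurus scorpion venom, added 3 min after compound. Membrane-potential ratio signals from FLIPR Tetra in HEPES-buffered HBSS were fitted to a four-parameter Hill equation for percent inhibition and IC50.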

[1] = HEK293 cells stably expressing recombinant human Nav1.7, veratridine + scorpion venom depolarization, read-out: FRET-Membrane Potential Nav1.7 IC50
[2] = read-out: FRET-Membrane Potential Nav1.7 IC50

Chain of recombinant human Nav1.7 (Q15858 whole entry): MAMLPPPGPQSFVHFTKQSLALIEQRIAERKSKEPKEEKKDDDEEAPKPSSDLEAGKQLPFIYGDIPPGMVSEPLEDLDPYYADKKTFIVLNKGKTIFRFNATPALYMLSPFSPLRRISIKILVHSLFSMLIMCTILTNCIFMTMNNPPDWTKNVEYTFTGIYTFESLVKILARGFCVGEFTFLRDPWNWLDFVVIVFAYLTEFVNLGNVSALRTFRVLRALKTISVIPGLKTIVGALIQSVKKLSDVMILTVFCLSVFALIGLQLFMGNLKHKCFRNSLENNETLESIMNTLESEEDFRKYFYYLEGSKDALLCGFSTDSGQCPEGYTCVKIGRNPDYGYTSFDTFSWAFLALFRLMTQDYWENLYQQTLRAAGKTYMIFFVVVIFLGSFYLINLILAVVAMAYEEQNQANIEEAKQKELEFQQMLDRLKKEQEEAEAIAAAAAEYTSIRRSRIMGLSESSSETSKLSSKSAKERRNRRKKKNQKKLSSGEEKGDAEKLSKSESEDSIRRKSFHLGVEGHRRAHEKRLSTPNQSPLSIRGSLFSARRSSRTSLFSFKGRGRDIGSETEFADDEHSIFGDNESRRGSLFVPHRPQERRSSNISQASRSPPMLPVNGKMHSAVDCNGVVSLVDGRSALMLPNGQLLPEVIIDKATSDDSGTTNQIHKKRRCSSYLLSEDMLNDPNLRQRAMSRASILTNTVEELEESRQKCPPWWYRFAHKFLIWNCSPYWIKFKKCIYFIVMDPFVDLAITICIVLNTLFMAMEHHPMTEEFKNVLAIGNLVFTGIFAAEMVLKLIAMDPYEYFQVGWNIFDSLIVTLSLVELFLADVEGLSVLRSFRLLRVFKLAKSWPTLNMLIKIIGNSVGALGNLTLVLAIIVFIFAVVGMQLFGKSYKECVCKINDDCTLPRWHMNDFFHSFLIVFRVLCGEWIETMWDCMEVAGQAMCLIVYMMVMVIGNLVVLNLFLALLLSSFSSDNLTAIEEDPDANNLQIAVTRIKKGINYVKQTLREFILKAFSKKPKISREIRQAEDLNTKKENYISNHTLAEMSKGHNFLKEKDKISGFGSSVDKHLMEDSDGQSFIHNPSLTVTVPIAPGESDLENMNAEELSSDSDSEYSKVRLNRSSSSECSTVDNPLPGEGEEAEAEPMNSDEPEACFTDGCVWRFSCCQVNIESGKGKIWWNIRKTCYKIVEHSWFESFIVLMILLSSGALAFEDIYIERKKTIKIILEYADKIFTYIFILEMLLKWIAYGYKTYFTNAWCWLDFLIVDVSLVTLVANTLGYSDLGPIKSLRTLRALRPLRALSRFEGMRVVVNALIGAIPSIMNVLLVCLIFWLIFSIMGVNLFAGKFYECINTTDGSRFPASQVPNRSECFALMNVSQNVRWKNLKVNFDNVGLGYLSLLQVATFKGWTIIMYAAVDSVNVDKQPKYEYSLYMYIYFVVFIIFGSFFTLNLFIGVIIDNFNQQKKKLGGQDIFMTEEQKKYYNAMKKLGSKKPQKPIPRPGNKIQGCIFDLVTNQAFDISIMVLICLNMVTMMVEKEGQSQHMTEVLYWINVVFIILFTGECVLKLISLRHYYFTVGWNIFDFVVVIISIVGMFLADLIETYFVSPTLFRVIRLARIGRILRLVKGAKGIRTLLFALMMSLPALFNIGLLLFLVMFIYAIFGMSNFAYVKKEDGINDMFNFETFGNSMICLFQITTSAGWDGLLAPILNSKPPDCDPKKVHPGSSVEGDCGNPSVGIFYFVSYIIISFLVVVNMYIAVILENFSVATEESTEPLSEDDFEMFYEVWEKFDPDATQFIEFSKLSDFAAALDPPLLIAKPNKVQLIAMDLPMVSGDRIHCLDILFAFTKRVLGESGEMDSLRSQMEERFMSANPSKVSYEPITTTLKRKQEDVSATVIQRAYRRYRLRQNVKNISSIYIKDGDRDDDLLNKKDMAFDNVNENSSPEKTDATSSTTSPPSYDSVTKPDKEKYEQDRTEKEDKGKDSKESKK

Structure (SMILES)	IC50 [1] [nM]	also measured
N#CCCN1CCN(C(=O)c2ccc3cc(Oc4ccc(C(F)(F)F)cn4)ccc3n2)CC1 [Example 473, 3-{4-[(6-{[5-(trifluoromethyl)pyridin-2-yl]oxy}quinolin-2-yl)carbonyl]piperazin-1-yl}propanenitrile]	16200	
N#Cc1ccc(Oc2ccc3nc(C(=O)NCc4ccncc4)ccc3c2)cc1 [Example 98, 6-(4-cyanophenoxy)-N-(pyridin-4-ylmethyl)quinoline-2-carboxamide]	885	
N#Cc1ccc(Oc2ccc3nc(C(=O)N[C@@H]4CCCC[C@@H]4O)ccc3c2)cc1 [Example 119, 6-(4-cyanophenoxy)-N-[(1R,2S)-2-hydroxycyclohexyl]quinoline-2-carboxamide]		IC50 [2]: 819 nM
CCOCCNC(=O)c1ccc2cc(Oc3ccc(C#N)cc3)ccc2n1 [Example 108, 6-(4-cyanophenoxy)-N-(2-ethoxyethyl)quinoline-2-carboxamide]	2410	
N#Cc1ccc(Oc2ccc3nc(C(=O)N4CCOCC4)ccc3c2)cc1 [Example 83, 4-{[2-(morpholin-4-ylcarbonyl)quinolin-6-yl]oxy}benzonitrile]	> 20000	
O=C(c1ccc2cc(Oc3ccc(C(F)(F)F)cn3)ccc2n1)N1CC2OCOC2C1 (stereo not shown) [Example 478, tetrahydro-5H-[1,3]dioxolo[4,5-c]pyrrol-5-yl(6-{[5-(trifluoromethyl)pyridin-2-yl]oxy}quinolin-2-yl)methanone]	5940	
O=C(NCCC(=O)N1CCCCC1)c1ccc2cc(Oc3ccc(C(F)(F)F)nc3)ccc2n1 [Example 520, N-[3-oxo-3-(piperidin-1-yl)propyl]-6-{[6-(trifluoromethyl)pyridin-3-yl]oxy}quinoline-2-carboxamide]	945	
O=C(c1ccc2cc(Oc3ccc(C(F)(F)F)cn3)ccc2n1)N1CC[C@H](O)[C@H](F)C1 (relative stereo) [Example 191, [cis-3-fluoro-4-hydroxypiperidin-1-yl](6-{[5-(trifluoromethyl)pyridin-2-yl]oxy}quinolin-2-yl)methanone]		IC50 (FRET-Membrane Potential Nav1.7 IC50): > 20000 nM
O=C(NCC1(O)COC1)c1ccc2cc(Oc3ccc(C(F)(F)F)cn3)ccc2n1 [Example 412, N-[(3-hydroxyoxetan-3-yl)methyl]-6-{[5-(trifluoromethyl)pyridin-2-yl]oxy}quinoline-2-carboxamide]		IC50 [2]: 513 nM
O=C(NC1COC1)c1ccc2cc(Oc3ccc(C(F)(F)F)nc3)ccc2n1 [Example 536, N-(oxetan-3-yl)-6-{[6-(trifluoromethyl)pyridin-3-yl]oxy}quinoline-2-carboxamide]	1150	
O=C(NC1CCC(F)(F)C1)c1ccc2cc(Oc3ccc(C(F)(F)F)cn3)ccc2n1 (stereo not shown) [Example 485, N-(3,3-difluorocyclopentyl)-6-{[5-(trifluoromethyl)pyridin-2-yl]oxy}quinoline-2-carboxamide]	3140	
CC1(O)CCN(C(=O)CNC(=O)c2ccc3cc(Oc4ccc(C(F)(F)F)cn4)ccc3n2)C1 (stereo not shown) [Example 561, N-[2-(3-hydroxy-3-methylpyrrolidin-1-yl)-2-oxoethyl]-6-{[5-(trifluoromethyl)pyridin-2-yl]oxy}quinoline-2-carboxamide]	3470	
O=C(c1ccc2cc(Oc3ccc(C(F)(F)F)cn3)ccc2n1)N1CCn2cnnc2C1 [Example 170, 5,6-dihydro[1,2,4]triazolo[4,3-a]pyrazin-7(8H)-yl(6-{[5-(trifluoromethyl)pyridin-2-yl]oxy}quinolin-2-yl)methanone]	8870	
O=C(NCC(=O)N1CCCCC1)c1ccc2cc(Oc3ccc(C(F)(F)F)cn3)ccc2n1 [Example 447, N-[2-oxo-2-(piperidin-1-yl)ethyl]-6-{[5-(trifluoromethyl)pyridin-2-yl]oxy}quinoline-2-carboxamide]	690	
CC1(C)CCN(C(=O)c2ccc3cc(Oc4ccc(C(F)(F)F)cn4)ccc3n2)C1 [Example 405, (3,3-dimethylpyrrolidin-1-yl)(6-{[5-(trifluoromethyl)pyridin-2-yl]oxy}quinolin-2-yl)methanone]	1400	
NC(=O)c1ccc2cc(Oc3ccc(C(F)(F)F)cn3)ccc2n1 [Example 210, 6-{[5-(trifluoromethyl)pyridin-2-yl]oxy}quinoline-2-carboxamide]	> 20000	
O=C(N[C@@H]1CCNC1)c1ccc2cc(Oc3ccc(C(F)(F)F)cn3)ccc2n1 [Example 331, N-[(3R)-pyrrolidin-3-yl]-6-{[5-(trifluoromethyl)pyridin-2-yl]oxy}quinoline-2-carboxamide]		IC50 [2]: 2640 nM
CC(=O)NCCCNC(=O)c1ccc2cc(Oc3ccc(C(F)(F)F)cn3)ccc2n1 [Example 613, N-(3-acetamidopropyl)-6-{[5-(trifluoromethyl)pyridin-2-yl]oxy}quinoline-2-carboxamide]	2210	
N#Cc1ccc(Oc2ccc3nc(C(=O)NC4CCOC4)ccc3c2)cc1 (stereo not shown) [Example 114, 6-(4-cyanophenoxy)-N-(tetrahydrofuran-3-yl)quinoline-2-carboxamide]		IC50 [2]: 560 nM

Structure (SMILES)	IC50 [1] [nM]	also measured
CN1CCN(C(=O)c2ccc3cc(Oc4ccc(C(F)F)cn4)ccc3n2)CC1=O [Example 464, 4-[(6-{[5-(difluoromethyl)pyridin-2-yl]oxy}quinolin-2-yl)carbonyl]-1-methylpiperazin-2-one]	> 20000	
O=C(c1ccc2cc(Oc3ccc(C(F)(F)F)cn3)ccc2n1)N1CC(Oc2ccc(Cl)cc2)C1 [Example 203, [3-(4-chlorophenoxy)azetidin-1-yl](6-{[5-(trifluoromethyl)pyridin-2-yl]oxy}quinolin-2-yl)methanone]	> 20000	
O=C(c1ccc2cc(Oc3ccc(C(F)(F)F)cn3)ccc2n1)N1C[C@H](O)C[C@H]1CO [Example 300, [(2S,4R)-4-hydroxy-2-(hydroxymethyl)pyrrolidin-1-yl](6-{[5-(trifluoromethyl)pyridin-2-yl]oxy}quinolin-2-yl)methanone]	> 20000	
O=C(c1ccc2cc(Oc3ccc(C(F)(F)F)cn3)ccc2n1)N1CC(F)(F)C[C@@H]1CO [Example 496, [(2R)-4,4-difluoro-2-(hydroxymethyl)pyrrolidin-1-yl](6-{[5-(trifluoromethyl)pyridin-2-yl]oxy}quinolin-2-yl)methanone]	2910	
O=C1NC[C@@H]2CN(C(=O)c3ccc4cc(Oc5ccc(C(F)(F)F)cn5)ccc4n3)C[C@H]12 [Example 166, (3 aR,6aR)-5-[(6-{[5-(trifluoromethyl)pyridin-2-yl]oxy}quinolin-2-yl)carbonyl]hexahydropyrrolo[3,4-c]pyrrol-1(2H)-one]	11100	
COCCOCC1(F)CCN(C(=O)c2ccc3cc(Oc4ccc(C(F)(F)F)cn4)ccc3n2)C1 (stereo not shown) [Example 493, {3-fluoro-3-[(2-methoxyethoxy)methyl]pyrrolidin-1-yl}(6-{[5-(trifluoromethyl)pyridin-2-yl]oxy}quinolin-2-yl)methanone]	802	
O=C(c1ccc2cc(Oc3ccc(C(F)(F)F)cn3)ccc2n1)N1CCNC(C(F)F)C1 (stereo not shown) [Example 594, [3-(difluoromethyl)piperazin-1-yl](6-{[5-(trifluoromethyl)pyridin-2-yl]oxy}quinolin-2-yl)methanone]		IC50 [2]: 7590 nM
O=C(NCC1(O)CCC1)c1ccc2cc(Oc3ccc(C(F)(F)F)cn3)ccc2n1 [Example 336, N-[(1-hydroxycyclobutyl)methyl]-6-{[5-(trifluoromethyl)pyridin-2-yl]oxy}quinoline-2-carboxamide]	439	
O=C(NC1CSC1)c1ccc2cc(Oc3ccc(C(F)(F)F)cn3)ccc2n1 [Example 499, N-(thietan-3-yl)-6-{[5-(trifluoromethyl)pyridin-2-yl]oxy}quinoline-2-carboxamide]	938	
CC(C)N1CCN(C(=O)c2ccc3cc(Oc4ccc(C(F)(F)F)cn4)ccc3n2)CC1 [Example 231, (4-isopropylpiperazin-1-yl)(6-{[5-(trifluoromethyl)pyridin-2-yl]oxy}quinolin-2-yl)methanone]		IC50 [2]: 783 nM
O=C(c1ccc2cc(Oc3ccc(C(F)(F)F)cn3)ccc2n1)N1CCC(F)(COc2cccnc2)C1 (stereo not shown) [Example 490, {3-fluoro-3-[(pyridin-3-yloxy)methyl]pyrrolidin-1-yl}(6-{[5-(trifluoromethyl)pyridin-2-yl]oxy}quinolin-2-yl)methanone]	1420	
O=C(c1ccc2cc(Oc3ccc(C(F)(F)F)cn3)ccc2n1)N1C[C@H](O)C[C@@H](O)C1 [Example 395, [(3R,5R)-3,5-dihydroxypiperidin-1-yl](6-{[5-(trifluoromethyl)pyridin-2-yl]oxy}quinolin-2-yl)methanone]		IC50 [2]: > 20000 nM
CO[C@H]1CN(C(=O)c2ccc3cc(Oc4ccc(C(F)(F)F)cn4)ccc3n2)C[C@H]1OC [Example 324, [cis-3,4-dimethoxypyrrolidin-1-yl](6-{[5-(trifluoromethyl)pyridin-2-yl]oxy}quinolin-2-yl)methanone]	5010	
NC1CCN(C(=O)c2ccc3cc(Oc4ccc(C(F)(F)F)cn4)ccc3n2)CC1 [Example 403, (4-aminopiperidin-1-yl)(6-{[5-(trifluoromethyl)pyridin-2-yl]oxy}quinolin-2-yl)methanone]	9670	
O=C(c1ccc2cc(Oc3ccc(S(=O)(=O)C(F)(F)F)cc3)ccc2n1)N1CCNCC1 [Example 215, piperazin-1-yl(6-{4-[(trifluoromethyl)sulfonyl]phenoxy}quinolin-2-yl)methanone]	810	
O=C(N[C@@H]1CCNC[C@H]1F)c1ccc2cc(Oc3ccc(C(F)(F)F)cn3)ccc2n1 [Example 584, N-[(3R,4R)-3-fluoropiperidin-4-yl]-6-{[5-(trifluoromethyl)pyridin-2-yl]oxy}quinoline-2-carboxamide]	304	
CN(CC(=O)NC1CC1)C(=O)c1ccc2cc(Oc3ccc(C(F)F)cn3)ccc2n1 [Example 466, N-[2-(cyclopropylamino)-2-oxoethyl]-6-{[5-(difluoromethyl)pyridin-2-yl]oxy}-N-methylquinoline-2-carboxamide]	9410	
O=C(NCCN1CCCCC1)c1ccc2cc(Oc3ccccn3)ccc2n1 [Example 79, N-[2-(piperidin-1-yl)ethyl]-6-(pyridin-2-yloxy)quinoline-2-carboxamide]		IC50 [2]: > 20000 nM
